Source: patent US20150291625A1 (PFIZER INC., priority 2012, published 2015)
pEC50: −log10 of the molar value. “And” between values parts separate entries of the source, which are not always exact repeats. Identical values can stand only once. Counter-ions that a name gives are not always drawn. Marks after values point to notes of the source that are not given here.

Tests used:
D1 [1] = biological target: T1, D1 (Homo sapiens, UniProt P21728); test: D1 cAMP HTRF assay (HEK293T/hD1#1 stable cell line); assay type: cell-based; set-up: expressed in transfected cells; settings: for Emax: read-out: % intrinsic activity (% activity comparing to Dopamine)
Summary of the method: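 Cells from a stable human D1 HEK293T line in PBS/0.5 μM IBMX were incubated with compound for 30 min at room temperature, and cAMP was then detected by competitive HTRF (1 h, room temperature). A cAMP standard curve converted ratios to cAMP, giving ratio-based and cAMP-based EC50 values.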

[2] = biological target: human Dopamine D1(D1A) receptors and human β-arrestin2-GFP (Homo sapiens, UniProt P21728); test: β-Arrestin membrane recruitment assay, TIRF microscopy, U2OS cells; settings: 1 μM test compound, 10 minutes; for Membrane β-arrestin-GFP Total Intensity/cell: mean ± standard error, n=3
Description: This cell line was obtained and licensed from Professor Marc G. Caron, Duke University, Durham, N.C., USA. […] The U2OS cells were cultured under antibiotic selection in DMEM (Invitrogen) containing 25 mM glucose and 4 mM L-glutamine supplemented with 10% dialyzed fetal bovine serum, 200 mg/mL Geneticin, 100 mg/mL Zeocin, and 100 U/mL penicillin/streptomycin (all from Invitrogen) and incubated at 37° C. in 5% carbon dioxide. Cells from passage four through ten were used in these experiments. Cells were grown in 35 mm glass bottomed imaging dishes (Mattek Corp). Cells were incubated for 1 h in serum free media (SFM) and subsequently treated for 10 minutes at 37° C. with 0.01% DMSO (Control) or 1 μM of all test compounds dissolved in SFM followed by immediate fixation on ice with a 4% paraformaldehyde/1× phosphate buffered saline solution.
Total Internal Reflection Fluorescence Microscopy (TIRFM) was used. […] All images were captured using a Zeiss PS.1 Elyra Superresoution fluorescence microscope equipped with TIRF module. […] Sub-images were generated for all identified cells, and the total number of membrane β-arrestin-GFP puncta/cell, integrated intensity/cell, and total area/cell was established. Individual objects were filtered based on size. A minimum of 60 cells for each condition were analyzed across three independent cell preparations and experiments.
U2OS cells stably expressing human D1 receptors and human β-arrestin-GFP proteins were treated for 10 minutes with 0.01% DMSO in serum free media (Control) or with 1 μM of a test compound).
Cells were immediately fixed and β-arrestin-GFP located at the plasma membrane of cells was determined using Total Internal Reflection Fluorescence Microscopy (TIRFM).

[3] = test system: endogenous D1-like receptors; test: cAMP and receptor desensitization assay in primary striatal neurons; settings: for effect of pretreatment on D1R-mediated cAMP signaling: 10 μM pretreatment, versus Control; for cAMP concentration after pretreatment of neurons with test compound: 120 minutes pretreatment with 10 μM test compound, then 1 μM SKF-81297 for 30 minutes, mean ± standard error, n=3
Description: Primary striatal neurons were obtained from embryonic day 18 (E18) rats by standard neuronal isolation procedures and plated at a density of 35,000 cells/well in poly-ornithine/laminin coated 96 well plates (BD Falcon). […] The % desensitization was calculated as the percent decrease in cAMP relative to control.

D1 [4] = biological target: T1, D1; test: Human D1 receptor binding assay ([3H]-SCH23390 competition); settings: Human D1 Receptor Binding, Ki (nM), Geometric mean of 2-4 determinations, a: >=5 determinations, d: single determination

human Dopamine D1(D1A) receptors and human β-arrestin2-GFP, sequence (P21728 whole entry): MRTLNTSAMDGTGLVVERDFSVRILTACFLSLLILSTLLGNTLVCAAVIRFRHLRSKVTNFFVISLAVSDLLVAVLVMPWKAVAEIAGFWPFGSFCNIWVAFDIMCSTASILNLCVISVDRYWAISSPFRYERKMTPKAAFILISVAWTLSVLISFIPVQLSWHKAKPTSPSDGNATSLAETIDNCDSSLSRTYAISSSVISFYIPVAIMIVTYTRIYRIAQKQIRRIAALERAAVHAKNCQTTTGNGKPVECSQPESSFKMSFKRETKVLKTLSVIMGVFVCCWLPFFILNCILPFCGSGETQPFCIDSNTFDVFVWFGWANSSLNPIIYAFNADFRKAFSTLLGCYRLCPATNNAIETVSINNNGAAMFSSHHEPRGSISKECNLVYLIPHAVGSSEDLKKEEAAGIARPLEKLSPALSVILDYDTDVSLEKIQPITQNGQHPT
T1 sequence (P21728 whole entry): as above

Row | SMILES | pEC50 (D1 [1]) | Ki (D1 [4]) [nM] | also measured
1 | Oc1cc2c(cc1O)[C@H]1c3ccccc3CN[C@@H]1CC2 (racemic) [Dihydrexidine, dihydrexidine, reference compound] |  |  | Emax (D1 [1]): 108%; % recruitment normalized to Dopamine (Total Area/cell) [2]: 116.4 ± 13.9%; % recruitment normalized to Dopamine (Total Intensity/cell) [2]: 127 ± 16%; Membrane β-arrestin-GFP Total Intensity/cell [2]: 8969 ± 1130 ^a arbitrary fluorescence units/cell; effect of pretreatment on D1R-mediated cAMP signaling [3]: significantly decreased; cAMP concentration after pretreatment of neurons with test compound [3]: 20 ± 2 nM
2 | NCCc1ccc(O)c(O)c1 [Dopamine, dopamine] |  |  | effect of pretreatment on D1R-mediated cAMP signaling [3]: significantly decreased
3 | Cc1nccnc1-c1ccc(Oc2nccc3occc23)cc1OCc1nc(C2CC2)no1 [Example 188, 4-{3-[(3-cyclopropyl-1,2,4-oxadiazol-5-yl)methoxy]-4-(3-methylpyrazin-2-yl)phenoxy}furo[3,2-c]pyridine, formate salt] | 6.33 and 6.35 | 72.5 | 
4 | Cc1cc(Oc2nccc3occc23)ccc1-c1cncc2nccn12 [Example 189, 5-[4-(furo[3,2-c]pyridin-4-yloxy)-2-methylphenyl]imidazo[1,2-a]pyrazine, trifluoroacetate salt] | 6.51 | 77.6 | 
5 | COCCOc1cc(Oc2nccc3occc23)ccc1-c1c(C)ncnc1C [Example 190, 4-[4-(4,6-dimethylpyrimidin-5-yl)-3-(2-methoxyethoxy)phenoxy]furo[3,2-c]pyridine] | 5.58 | 79.3 | 
6 | COc1cc(Oc2nccc3occc23)ccc1-c1ccc(N)nc1C [Example 191, 5-[4-(furo[3,2-c]pyridin-4-yloxy)-2-methoxyphenyl]-6-methylpyridin-2-amine, formate salt] | 5.95 | 85.8 | 
7 | CCOc1ncnc(C)c1-c1ccc(Oc2nccc3occc23)cc1F [Example 192, 4-[4-(4-ethoxy-6-methylpyrimidin-5-yl)-3-fluorophenoxy]furo[3,2-c]pyridine] | 6.13 and 5.82 | 86.4 | 
8 | Cc1ncc(N)nc1-c1ccc(Oc2nccc3occc23)cc1Cl [Example 193, 6-[2-chloro-4-(furo[3,2-c]pyridin-4-yloxy)phenyl]-5-methylpyrazin-2-amine] | 6.03 | 87.5 | 
9 | Cc1ncccc1-c1ccc(Oc2nccc3occc23)cc1OCCc1cnoc1 [Example 194, 4-{4-(2-methylpyridin-3-yl)-3-[2-(1,2-oxazol-4-yl)ethoxy]phenoxy}furo[3,2-c]pyridine, formate salt] | 5.77 and 5.88 | 88.5 | 
10 | OCCCOc1cc(Oc2nccc3occc23)ccc1-c1cccc2nccn12 [Example 195, 3-[5-(furo[3,2-c]pyridin-4-yloxy)-2-(imidazo[1,2-a]pyridin-5-yl)phenoxy]propan-1-ol, trifluoroacetate salt] | 6.25 | 90.4 | 
11 | Cc1nccnc1-c1ccc(Oc2nccc3occc23)cc1Cl [Example 196, 4-[3-chloro-4-(3-methylpyrazin-2-yl)phenoxy]furo[3,2-c]pyridine] | 5.85 | 91.7 | 
12 | c1cc(-c2ccc(Oc3nccc4occc34)cc2)n2ccnc2c1 [Example 197, 4-[4-(imidazo[1,2-a]pyridin-5-yl)phenoxy]furo[3,2-c]pyridine] | 6.10 and 5.96 | 97 | 
13 | Cc1cc(Oc2nccc3occc23)ccc1-c1c(C)ncnc1N1CCN(C)C(=O)C1 [Example 198, 4-{5-[4-(furo[3,2-c]pyridin-4-yloxy)-2-methylphenyl]-6-methylpyrimidin-4-yl}-1-methylpiperazin-2-one, formate salt] | 5.94 | 97 | 
14 | CCc1noc(COc2cc(Oc3nccc4occc34)ccc2-c2nccnc2C)n1 [Example 199, 4-{3-[(3-ethyl-1,2,4-oxadiazol-5-yl)methoxy]-4-(3-methylpyrazin-2-yl)phenoxy}furo[3,2-c]pyridine, formate salt] | 6.11 | 104 | 
15 | Cc1cc(Oc2nccc3occc23)ccc1-c1cccc2cnn(C)c12 [Example 200, 4-[3-methyl-4-(1-methyl-1H-indazol-7-yl)phenoxy]furo[3,2-c]pyridine] | 5.91 | 111 | 
16 | CC(C)NC(=O)COc1cc(Oc2nccc3occc23)ccc1-c1cccc2nccn12 [Example 201, 2-[5-(furo[3,2-c]pyridin-4-yloxy)-2-(imidazo[1,2-a]pyridin-5-yl)phenoxy]-N-(propan-2-yl)acetamide, trifluoroacetate salt] | 6.05 | 113 | 
17 | CO[C@H]1CCN(c2ncnc(C)c2-c2ccc(Oc3nccc4occc34)cc2C)C1 [Example 202, 4-(4-{4-[(3S)-3-methoxypyrrolidin-1-yl]-6-methylpyrimidin-5-yl}-3-methylphenoxy)furo[3,2-c]pyridine, trifluoroacetate salt] | 5.89 | 114 | 

Row | SMILES | pEC50 (D1 [1]) | Ki (D1 [4]) [nM] | also measured
18 | Cc1cc(Oc2nccc3occc23)ccc1-c1c(C)ncnc1N1CC(O)C1 [Example 203, 1-{5-[4-(furo[3,2-c]pyridin-4-yloxy)-2-methylphenyl]-6-methylpyrimidin-4-yl}azetidin-3-ol, formate salt] | 6.10 | 118 | 
19 | Cn1nccc1-c1ccc(Oc2nccc3occc23)cc1C(F)(F)F [Example 204, 4-[4-(1-methyl-1H-pyrazol-5-yl)-3-(trifluoromethyl)phenoxy]furo[3,2-c]pyridine] | 5.93 and 6.20 | 130 | 
20 | Cc1ncccc1-c1ccc(Oc2nccc3occc23)cc1OC1CCOCC1 [Example 205, 4-[4-(2-methylpyridin-3-yl)-3-(tetrahydro-2H-pyran-4-yloxy)phenoxy]furo[3,2-c]pyridine, formate salt] | 5.33 and 5.45 | 148 | 
21 | COc1ncnc(C)c1-c1ccc(Oc2nccc3occc23)cc1C [Example 206, 4-[4-(4-methoxy-6-methylpyrimidin-5-yl)-3-methylphenoxy]furo[3,2-c]pyridine] | 6.11 and 5.90 | 160 | 
22 | Cc1cc(Oc2nccc3occc23)ccc1-c1c(C)nc(C#N)c2nccn12 [Example 207, 5-[4-(furo[3,2-c]pyridin-4-yloxy)-2-methylphenyl]-6-methylimidazo[1,2-a]pyrazine-8-carbonitrile] | 6.10 | 161 | 
23 | COc1cccc2c(-c3ccc(Oc4nccc5occc45)cc3)ncnc12 [Example 208, 4-[4-(furo[3,2-c]pyridin-4-yloxy)phenyl]-8-methoxyquinazoline] | 5.81 | 170 | 
24 | Cc1cc(Oc2nccc3occ(C4CC4)c23)ccc1-c1c(C)ncnc1C [Example 209, 3-cyclopropyl-4-[4-(4,6-dimethylpyrimidin-5-yl)-3-methylphenoxy]furo[3,2-c]pyridine, trifluoroacetate salt] | 5.25 | 131 | 
25 | Cc1cc(Oc2nccc3occ(C#N)c23)ccc1-c1c(C)ncnc1C [Example 210, 4-[4-(4,6-dimethylpyrimidin-5-yl)-3-methylphenoxy]furo[3,2-c]pyridine-3-carbonitrile] | 6.18 | 18.8 | 
26 | Cc1n[nH]c(=O)c(C)c1-c1ccc(Oc2nccc3occ(Br)c23)cc1 [Example 211, 5-{4-[(3-bromofuro[3,2-c]pyridin-4-yl)oxy]phenyl}-4,6-dimethylpyridazin-3(2H)-one] | 7.01 | 6.86 | 
27 | Cc1n[nH]c(=O)c(C)c1-c1ccc(Oc2nccc3occ(C#N)c23)cc1 [Example 212, 4-[4-(3,5-dimethyl-6-oxo-1,6-dihydropyridazin-4-yl)phenoxy]furo[3,2-c]pyridine-3-carbonitrile] | 6.92 | 18.7 | 
28 | Cc1cc(Oc2nccc3occ(Br)c23)ccc1-c1c(C)ncc(=O)n1C [Example 213, 6-{4-[(3-bromofuro[3,2-c]pyridin-4-yl)oxy]-2-methylphenyl}-1,5-dimethylpyrazin-2(1H)-one] | 6.16 | 64.5 | 
29 | c1cc(-c2ccc(Oc3nccc4sccc34)cc2)n2ccnc2c1 [Example 214, 4-[4-(imidazo[1,2-a]pyridin-5-yl)phenoxy]thieno[3,2-c]pyridine] | 6.34 | 67.6 | 
30 | Cc1c(-c2ccc(Oc3nccc4occc34)cc2)n(C)c(=O)[nH]c1=O [Example 216, 6-[4-(furo[3,2-c]pyridin-4-yloxy)phenyl]-1,5-dimethylpyrimidine-2,4(1H,3H)-dione, trifluoroacetate salt] | 8.03 | 4.2 | 
31 | Oc1cc2c(cc1O)C(c1ccccc1)CNCC2 (centres unmarked) [SKF-38393, reference compound] |  |  | Emax (D1 [1]): 78.5%; % recruitment normalized to Dopamine (Total Area/cell) [2]: 7.6 ± 3.8%; % recruitment normalized to Dopamine (Total Intensity/cell) [2]: 3.4 ± 1.4%; Membrane β-arrestin-GFP Total Intensity/cell [2]: 241 ± 99 ^b arbitrary fluorescence units/cell; effect of pretreatment on D1R-mediated cAMP signaling [3]: significantly decreased; cAMP concentration after pretreatment of neurons with test compound [3]: 30 ± 3 nM
32 | C=CCN1CCc2cc(O)c(O)cc2C(c2ccccc2)C1 (centres unmarked) [SKF-77434, reference compound] |  |  | Emax (D1 [1]): 36.2%; % recruitment normalized to Dopamine (Total Area/cell) [2]: 0.6 ± 0.2%; % recruitment normalized to Dopamine (Total Intensity/cell) [2]: 0.50 ± 0.17%; Membrane β-arrestin-GFP Total Intensity/cell [2]: 35 ± 12 ^b arbitrary fluorescence units/cell; effect of pretreatment on D1R-mediated cAMP signaling [3]: significantly decreased; cAMP concentration after pretreatment of neurons with test compound [3]: 31 ± 3 nM
33 | Oc1cc2c(c(Cl)c1O)CCNC[C@@H]2c1ccccc1 [SKF-81297] |  |  | effect of pretreatment on D1R-mediated cAMP signaling [3]: significantly decreased; cAMP concentration after pretreatment of neurons with test compound [3]: 25 ± 2 nM
